According to patent publication US9920383B2, “Active substances for increasing the stress defense in plants to abiotic stress, and methods of finding them” (Bayer Intellectual Property GMBH, priority 2005, dated 2018):

What was measured:
[1] = test system: maize plants; assay: Heat stress experiment with maize plants, seed dressing with active substance; format: in vivo, maize cv. Lorenzo
Text: Maize seeds cv. Lorenzo were dressed as in example 1 with the compound 4-cyclopropylaminocarbonyl-N-(2-methoxybenzoyl)benzenesulfonamide (=VIII-3) or treated only with solvent without active substance. The seedlings were raised for 10 days in the controlled-environment chamber under defined conditions, likewise as described in example 1.2×10 pots with maize plants were used for the heat stress experiment. The control group consisted of undressed plants (solvent), the test group of plants which had been dressed with active substance. To apply the heat stress conditions, both plant groups were placed for 2 days into a controlled-environment cabinet at 45′C, white light, long day (16 hours fight, 8 hours dark) and 70% atmospheric humidity. To avoid desiccation as the result of the high temperature, the plants were irrigated once per day from below by raising the water level in a tray. After the heat stress, it was observed that—especially in the control group—the shoots of many plants had collapsed and that the leaves were lying flat on the ground.
The experiment was valued quantitatively, taking into consideration the following criteria.
After the heat treatment, the plants which had collapsed were counted and the result per pot was assessed:
Thereafter, all plants were grown on for 2 weeks under standard conditions. Then, the length increment of the individual plants was measured, and the survival rate of the plants per pot was determined: […]

[2] = test system: maize plants; assay: Chill-stress experiment (greenhouse) with maize plants, pre-emergence treatment; format: in vivo, maize cv. Lorenzo; details: for Number of damaged plants (chloroses): chill stress 6 h at −2° C, 20 plants per group
Text: Maize seeds cv. Lorenzo were sown into 10-cm-pots into compost at a rate of 10 seeds per pot. All experimental groups consisted of in each case 4 pots. The sown seeds of test groups 1 and 2 were sprayed pre-emergence with 50 and 100 [g a.i./ha], respectively, of the compound 4-cyclopropylaminocarbonyl-N-(2-methoxybenzoyl)benzenesulfonamide (=VIII-3). The seeds of the control group remained untreated. The plants were raised under controlled conditions in a controlled-environment chamber [white light (long day: 16 h light, 8 h dark), 22° C. day-time temperature, 14° C. night-time temperature, 60% atmospheric humidity].
After germination, when the plants had attained a length of approx. 1 cm, 2 pots from each group were incubated for 6 h in a different controlled-environment chamber under chill-stress conditions at −2° C. Thereafter, these plants were returned to the others in the first controlled-environment chamber.
To evaluate the experiment quantitatively, the plants with chloroses of the leaf tips were counted. The total number of the plants per test group and cold stress treatment was 20, provided over 2 pots in each case.

[3] = test system: maize plants; assay: Drought stress experiment with maize plants, seed dressing with active substance; format: in vivo, maize cv. Lorenzo; details: for Relative dry matter [%]: relative to control group 2 (−S/−D)
Method: Maize seeds cv. Lorenzo were dressed with the compound 4-cyclopropylamino-carbonyl-N-(2-methoxybenzoyl)benzenesulfonamide (=VIII-3). To this end, 10 g of seeds were incubated with 20 mg of active substance dissolved in 2 ml of methylene chloride, with gentle shaking, until the solvent had evaporated (approx. 30 minutes). The seeds of the control group were only dressed with solvent. Thereafter, the treated seeds were placed into pots with compost (diameter 10 cm, in each case 10 seeds per pot), and the maize seedlings were raised for 10 days in a controlled-environment chamber under defined light, moisture and temperature conditions [white light, long day (16 hours light, 8 hours dark), 70% atmospheric humidity, 24° C.]. In each case 2×10 pots were used for the control groups and for the drought stress experiment. While the plants were raised, they were watered from below for 20 minutes every 2 days by raising the water level in a tray. 10 days after the seeds had germinated, the maize plants were exposed to the drought stress. To this end, the plants of control group 1 (without dressing with active substance) and of the test group (with dressing with active substance) were only irrigated every 7 days as described above. In the case of the plants of control group 2 (without dressing with active substance) and of the test group 2 (with dressing with active substance), the normal irrigation regime was reclaimed. After 3 weeks of drought stress conditions, the experiment was evaluated as follows. The aerial plant parts were cut off and dried overnight at 50° C. On the next day, the foliar biomass was determined in [g] (dry matter) per pot.
The data were averaged over the in each case 10 pots of the plant group. The numerical values shown in table 1 are relative values in [%] relative to the data obtained with the control group 2 (without dressing with active substance, normal irrigation regime).

[4] = test system: maize plants; assay: Chill stress experiment (field) with maize plants, seed dressing; format: in vivo, maize (dent com); details: for Chill damage [%]: number of plants with chill damage > 20% of the total number of plants in the test plot
Method: One control plant contains untreated seed. Approximately 8 days after the seed emerged, the seedlings were in the one-leaf stage and were exposed for 5 days to the following temperature conditions:
After this chill period, the test plots were scored. For this purpose, all plants were assessed individually, and plants with at least 20% chill symptoms based on the total leaf area (burns and/or chloroses) were considered to be damaged.

[5] = seeds dressed, after heat stress

In the case of `COc1ccccc1C(=O)NS(=O)(=O)c1ccc(C(=O)NC2CC2)cc1` [VIII-3, 4-cyclopropylaminocarbonyl-N-(2-methoxybenzoyl)benzenesulfonamide], the “Interim score (collapsed plants)” value ([1]; +S/+H: seeds dressed, heat stress 2 days 45° C, one symbol per pot (10 pots)) is reported as “◯◯◯◯◯◯◯◯◯◯”, the “"standing" of the plants after heat stress” value [1, 5] is reported as “considerably better” and the “survival rate compared with the control group” value [1, 5] is reported as “significantly higher”. The “Number of damaged plants (chloroses)” value ([2]; 50 g a.i./ha pre-emergence) was 1, the “Number of damaged plants (chloroses)” value ([2]; 100 g a.i./ha pre-emergence) was 0 and the “occurrence of chill stress damage symptoms” value ([2]; at the higher dosage rate) was “completely prevents”. For the same compound, the “chloroses at the leaf tips after chill stress” value ([2]; plants treated with the active substance, 24 hours after chill stress) was “either absent or only very weakly pronounced”, the “plants showing damage symptoms” value ([2]; test groups kept exclusively under standard conditions without chill stress) was “None” and the “damage symptoms which are the result of chill stress” value ([2]; treatment with the active substance (lower dosage rate)) was “markedly reduce”. The “Relative dry matter [%]” value ([3]; +S/+D: seeds dressed (20 mg per 10 g seeds), 3 weeks drought stress) was 80%, the “Relative dry matter [%]” value ([3]; +S/−D: seeds dressed, normal irrigation (no drought stress)) was 100% and the “average foliar biomass (dry matter) over the undressed control plant” value ([3]; under drought stress (control group 1 vs test group 1)) was “significantly increased”. For the same compound, the “Chill damage [%]” value ([4]; dressed with 0.003 mg per seed) was 12%, the “Chill damage [%]” value ([4]; dressed with 0.03 mg per seed) was 12% and the “chill damage compared with control plot” value ([4]; test plots with dressing with active substance) was “significantly reduced”. The “plants showing damage symptoms” value ([4]; test plots with dressing with active substance (both quantities)) was “approximately 12%”.
